Values quoted from earlier work, collected in patent US20220304980A1, “METERED DOSING COMPOSITIONS AND METHODS OF USE OF P[…]” (SW Holdings, Inc, priority 2019, published 2022).

Legend:
5-HT2A receptor = 5-HT2A receptor (Homo sapiens, UniProt P28223); details: selective 5-HT2A antagonists; cited from earlier work
rat veins = details: cited from earlier work

5-HT2A receptor, sequence (P28223 whole entry): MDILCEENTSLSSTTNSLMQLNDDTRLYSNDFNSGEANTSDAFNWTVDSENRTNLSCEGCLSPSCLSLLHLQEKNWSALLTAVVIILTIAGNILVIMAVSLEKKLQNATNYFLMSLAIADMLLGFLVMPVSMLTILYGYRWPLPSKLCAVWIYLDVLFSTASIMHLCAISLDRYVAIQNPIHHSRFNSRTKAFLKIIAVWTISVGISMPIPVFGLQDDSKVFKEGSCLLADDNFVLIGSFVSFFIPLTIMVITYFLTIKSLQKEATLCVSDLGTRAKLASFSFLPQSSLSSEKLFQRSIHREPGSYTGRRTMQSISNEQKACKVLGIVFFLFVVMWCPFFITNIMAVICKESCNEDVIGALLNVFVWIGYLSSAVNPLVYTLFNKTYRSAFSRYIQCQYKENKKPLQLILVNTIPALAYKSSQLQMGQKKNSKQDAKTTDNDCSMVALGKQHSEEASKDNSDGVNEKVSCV

For `O=CN1CCC(C(=O)NCCN2CCC(=C3c4ccccc4C=Cc4ccccc43)CC2)CC1` [AT-1015], the vascular effect (5-HT2A receptor) is listed as “vasodilating properties”.
For `COc1cc(CC(C)N)c(OC)cc1I` (centres unmarked) [DOI], the “effect on rat veins” value (rat veins; 5-HT2A agonist) is given as “constricts rat veins”.
For `O=C(c1ccc(F)cc1)C1CCN(CCn2c(=O)[nH]c3ccccc3c2=O)CC1` [ketanserin], the “effect on DOI-induced constriction of rat veins” value (rat veins; 5-HT2A antagonist) is listed as “blocked” and the vascular effect (5-HT2A receptor) is listed as “vasodilating properties”.
For `COc1cccc(CCc2ccccc2OCC(CN(C)C)OC(=O)CCC(=O)O)c1` (centres unmarked) [sarpogrelate], the vascular effect (5-HT2A receptor) is listed as “vasodilating properties”.
